We go through 39 compounds from ChEMBL document CHEMBL3507680, “University of Dundee, Gates Library screen for HepG2 cell viability”.

This data set in a line: Human HepG2 cell viability assay in 384 well format. Particulars: HepG2 cells, read-out: Inhibition. Also on record: dose 125 nL, time 70.5 hour; cytotoxicity at 70.5 h: concentration not given beside the values. The class given is toxicity, cell-based.
For the compound `O=C(O)c1ccc(F)c(S(=O)(=O)Nc2ccc(-n3cccn3)c(Cl)c2)c1`, the cytotoxicity at 70.5 h was -6.87%.
In the case of `O=C(NCCc1ccc(F)cc1)NC1CCCc2c1cnn2CCO` (centres undefined), the cytotoxicity at 70.5 h is -6.55%.
On to `COc1cccc(N2CCN(Cc3nccn3C(C)C)CC2=O)c1`, for which the cytotoxicity at 70.5 h was -2.87%.
For the compound `CNC(=O)c1cc2c(nc1NCC(C)C)CCN(S(C)(=O)=O)CC2`, the cytotoxicity at 70.5 h was -5.11%.
Regarding `c1cc(-c2c[nH]c([C@@H]3COCCN3CC3CC3)n2)ccn1`, the cytotoxicity at 70.5 h is -1.9%.
With `Cc1nc(C)n(C2CCCN(C(=O)CCc3cscn3)C2)n1` (centres undefined) the figure was 37%.
Regarding `Cc1cc(N2CCC(N(C)Cc3cccnc3)C2=O)n(C)n1` (centres undefined), the cytotoxicity at 70.5 h came to 13.5%.
On to `COc1ccccc1N1CCN(C(=O)Cn2nccc2C)CC1(C)C`, for which the cytotoxicity at 70.5 h is -3.69%.
Turning to `Cn1c(NC(=O)CCS(=O)(=O)C2CCCC2)nc2cc(Cl)ccc21`, the cytotoxicity at 70.5 h is -9.03%.
With `COCCNC(=O)NCCc1cccc(OC)c1O` the figure was 0.934%.
For the compound `N#Cc1ncn(CCC(=O)Nc2ccc(Cl)cc2F)n1`, the cytotoxicity at 70.5 h is -7.28%.
With `COCc1c(Br)cccc1NC(=O)N(C)CCO` the figure was -12.1%; with `CNCc1ccc([C@@H]2CN(C(C)=O)C[C@H]2C(=O)N(C)C)cc1`, -1.57%; with `Cc1ccc(CN2CCC3(CC2)OC(C(=O)N(C)C)c2ccccc23)o1` (centres undefined), -13.3%.
With `CCc1cc(CNC(=O)C2CCC(=O)N(Cc3ccccc3F)C2)on1` (centres undefined) the figure was -9.72%; with `CCn1cnnc1C1CCN(C(=O)c2ccc(C(=O)OC)s2)CC1`, -10.6%; with `c1cc(CN2CC[C@H]3CO[C@H](CN4CCOCC4)[C@H]3C2)cs1`, -11.2%.
With `Cc1cc(=O)[nH]c(SC(C)C(=O)N2CCC(c3ncc[nH]3)CC2)n1` (centres undefined) the figure was 0.989%; with `COc1ccccc1CC(C)(C)NC(=O)CNS(C)(=O)=O`, -2.04%; with `CN(C)C(CNCc1nc(-c2ccsc2)no1)c1cccc(F)c1` (centres undefined), -10.2%.
For `COCC(=O)N1CCN(C(=O)CCc2ccsc2)CC1`, the cytotoxicity at 70.5 h was -3.39%.
The value for `COCCNC(=O)[C@]12COC[C@H]1CN(C1CCOCC1)C2` was 10.6%; that for `NCCSc1nccc(-c2cnc(C3CC3)nc2-c2ccco2)n1` was 21.8%; that for `Cc1ccc2nc(C)cc(NCCNS(=O)(=O)c3cccnc3)c2c1` was -2.02%.
With `CCCS(=O)(=O)N1CCC2(CC1)CCn1c(-c3cnn(C)c3)cnc12` the figure was -11.3%; with `c1csc(CCNC2CCc3ncnn3C2)c1` (centres undefined), 0.839%.
`CN1CC2(CCCCN2C(=O)c2ccsc2)CC1=O` (centres undefined): the cytotoxicity at 70.5 h worked out at 5.12%.
Take `COc1cc(CNC(C)Cn2ccnc2)cc2c1OCO2` (centres undefined): the cytotoxicity at 70.5 h was -10.9%.
Turning to `O=C(c1ccco1)N1CCN2C[C@H](Oc3cncnc3)C[C@H]2C1`, the cytotoxicity at 70.5 h was determined as 12.4%.
With `CN(Cc1nncn1C)C(=O)c1cc(COc2ccccc2)[nH]n1` the figure was -5.51%.
The value for `CCN1CCC(NC(=O)CN2CCCC2Cn2nc(C)cc2C)CC1` (centres undefined) was -9.53%; that for `CCc1nnc(CN2CCCN(C(=O)c3ccccn3)CC2)o1` was -10.8%.
With `COCC(=O)N1CCN(Cc2cccnc2)c2ncccc2C1` the figure was 1.38%; with `CC(C)(C)n1cc(NCc2cscn2)cn1`, -6.29%; with `Cc1noc(C)c1-c1cc(CC2CCN(C(=O)c3cc[nH]n3)C2)ncn1` (centres undefined), -0.894%.
Regarding `COCC1CCCN(C(=O)c2ccccc2NCc2cccnc2)C1` (centres undefined), the cytotoxicity at 70.5 h amounted to 3.32%.
The value for `CCOCCN1C[C@H](c2cccc(OC)c2)[C@@H](N)C1` was -4.15%; that for `COC(=O)N1CCC(c2nnc(Cn3ccnc3)n2C)CC1` was -2.68%.
On to `CC(C)N1CCO[C@H]2CN(C(=O)c3ccccn3)C[C@H]21`, for which the cytotoxicity at 70.5 h was -7.58%.
